Bridge positions count the residues as written; N and C are the ends. Square brackets hold non-standard residues; d marks the D form. Peptide text beside a SMILES is read from it. * marks the point of attachment. Phe(4-COOH) = N[C@@H](Cc1ccc(C(=O)O)cc1)C(=O)O; Bip = N[C@@H](Cc1ccc(-c2ccccc2)cc1)C(=O)O; Phe(3-Me) = Cc1cccc(C[C@H](N)C(=O)O)c1; Cha = N[C@@H](CC1CCCCC1)C(=O)O; Carboxymethyl = O=C(O)C*; Orn = NCCC[C@H](N)C(=O)O; Aun = NCCCCCCCCCCC(=O)O; Dab = NCC[C@H](N)C(=O)O; Dap = NC[C@H](N)C(=O)O; AEEA = NCCOCCOCC(=O)O
Target: T1, PD-1/PD-L1 interaction (PE-labeled human PD-L1-Ig binding to Jurkat cell line over-expressing human PD-1) (Homo sapiens, UniProt Q15116)
T1 construct: expressed in transfected cells; host or cells: Jurkat
Test: Jurkat-PD-1 Cell Binding High-Content Screening Assay (CBA)
Type: cell-based
Settings: Jurkat cell line over-expressing human PD-1; PE-labeled PD-L1-Ig 20 nM final; read-out: Jurkat hPD1-PDL1 IC50
Summary of the method: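 First, compound is added to PD-1-expressing Jurkat cells in serum-containing DMEM and left 2 h at 37° C. Next, PE-conjugated PD-L1-Ig is introduced at 20 nM final concentration for 1 hour. Finally, cells are fixed in 4% paraformaldehyde with Hoechst 33342, washed and imaged.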

T1 sequence (Q15116 25-288): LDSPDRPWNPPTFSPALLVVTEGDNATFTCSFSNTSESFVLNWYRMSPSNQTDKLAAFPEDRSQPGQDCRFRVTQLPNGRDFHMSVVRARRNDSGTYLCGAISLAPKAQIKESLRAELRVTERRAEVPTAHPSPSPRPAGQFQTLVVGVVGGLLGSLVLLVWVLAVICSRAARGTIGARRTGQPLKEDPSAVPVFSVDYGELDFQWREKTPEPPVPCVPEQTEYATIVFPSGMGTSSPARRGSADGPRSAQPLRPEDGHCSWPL

| IC50 [nM] | SMILES |
| --- | --- |
| 9.8 | CC(C)C[C@H]1NC(=O)[C@H](CCCN)NC(=O)[C@H](C(C)C)NC(=O)[C@H](Cc2ccc(-c3ccccc3)cc2)NC(=O)[C@H](C(C)C)NC(=O)[C@H](Cc2c[nH]c3ccccc23)NC(=O)[C@H](CC(=O)O)NC(=O)[C@H](Cc2ccc(C(=O)O)cc2)NC(=O)[C@H](Cc2ccc(OCC(=O)O)cc2)NC(=O)CSC[C@@H](C(=O)NCC(=O)NCCOCCOCC(=O)N[C@@H](CCCN)C(=O)NCCCCCCCCCCC(=O)O)NC(=O)[C@H](CCCN)NC(=O)[C@H](C(C)C)NC(=O)[C@H](CC2CCCCC2)NC(=O)[C@H](CCN)NC1=O [Compound 3228] ({CH2CO}-Y(Carboxymethyl)[Phe(4-COOH)]DWV[Bip]V[Orn][dL][Dab][Cha]V[Orn]CG[AEEA][Orn][Aun]-OH; thioether N-14) |
| 6.9 | CC(C)C[C@H]1NC(=O)[C@H](CCCN)NC(=O)[C@H](C(C)C)NC(=O)[C@H](Cc2ccc(-c3ccccc3)cc2)NC(=O)[C@H](C(C)C)NC(=O)[C@H](Cc2c[nH]c3ccccc23)NC(=O)[C@H](CC(=O)O)NC(=O)[C@H](Cc2ccc(OCC(=O)O)cc2)NC(=O)[C@H](Cc2ccc(OCC(=O)O)cc2)NC(=O)CSC[C@@H](C(=O)NCC(=O)NCCOCCOCC(=O)N[C@@H](CCCN)C(=O)NCCCCCCCCCCC(=O)O)NC(=O)[C@H](CCCN)NC(=O)[C@H](C(C)C)NC(=O)[C@H](CC2CCCCC2)NC(=O)[C@H](CCN)NC1=O [Compound 3229] ({CH2CO}-Y(Carboxymethyl)Y(Carboxymethyl)DWV[Bip]V[Orn][dL][Dab][Cha]V[Orn]CG[AEEA][Orn][Aun]-OH; thioether N-14) |
| 8.9 | CC(C)C[C@H]1NC(=O)[C@H](CCCN)NC(=O)[C@H](C(C)C)NC(=O)[C@H](Cc2ccc(-c3ccccc3)cc2)NC(=O)[C@H](C(C)C)NC(=O)[C@H](Cc2c[nH]c3ccccc23)NC(=O)[C@H](CC(=O)O)NC(=O)[C@H](Cc2ccc(OCC(=O)O)cc2)NC(=O)[C@H](CCCNC(=N)N)NC(=O)CSC[C@@H](C(=O)NCC(=O)NCCOCCOCC(=O)N[C@@H](CCCN)C(=O)NCCCCCCCCCCC(=O)O)NC(=O)[C@H](CO)NC(=O)[C@H](C(C)C)NC(=O)[C@H](CC2CCCCC2)NC(=O)[C@H](CCN)NC1=O [Compound 3230] ({CH2CO}-RY(Carboxymethyl)DWV[Bip]V[Orn][dL][Dab][Cha]VSCG[AEEA][Orn][Aun]-OH; thioether N-14) |

The remaining lines, values behind:

| SMILES | IC50 [nM] |
| --- | --- |
| Cc1cccc(C[C@@H]2NC(=O)[C@H](CC(=O)O)NC(=O)[C@H](Cc3ccc(OCC(=O)O)cc3)NC(=O)[C@H](CCCNC(=N)N)NC(=O)CSC[C@@H](C(=O)NCCOCCOCC(=O)N[C@@H](CCN)C(=O)NCCCCCCCCCCC(=O)O)NC(=O)[C@H](CN)NC(=O)[C@H](C(C)C)NC(=O)[C@H](CC3CCCCC3)NC(=O)[C@H](CCN)NC(=O)[C@@H](CC(C)C)NC(=O)[C@H](CCCN)NC(=O)[C@H](C(C)C)NC(=O)[C@H](Cc3ccc(-c4ccccc4)cc3)NC(=O)[C@H](C(C)C)NC2=O)c1 [Compound 3220] ({CH2CO}-RY(Carboxymethyl)D[Phe(3-Me)]V[Bip]V[Orn][dL][Dab][Cha]V[Dap]C[AEEA][Dab][Aun]-OH; thioether N-14) | 11.5 |
| CC(C)C[C@H]1NC(=O)[C@H](CCCN)NC(=O)[C@H](C(C)C)NC(=O)[C@H](Cc2ccc(-c3ccccc3)cc2)NC(=O)[C@H](C(C)C)NC(=O)[C@H](Cc2c[nH]c3ccccc23)NC(=O)[C@H](CC(=O)O)NC(=O)[C@H](Cc2ccc(C(=O)O)cc2)NC(=O)[C@H](CCCNC(=N)N)NC(=O)CSC[C@@H](C(=O)NCC(=O)NCCOCCOCC(=O)N[C@@H](CCCN)C(=O)NCCCCCCCCCCC(=O)O)NC(=O)[C@H](CO)NC(=O)[C@H](C(C)C)NC(=O)[C@H](CC2CCCCC2)NC(=O)[C@H](CCN)NC1=O [Compound 3231] ({CH2CO}-R[Phe(4-COOH)]DWV[Bip]V[Orn][dL][Dab][Cha]VSCG[AEEA][Orn][Aun]-OH; thioether N-14) | 7.7 |

Reference: US20260022142A1, “MACROCYCLIC IMMUNOMODULATORS” (Bristol-Myers Squibb Company, priority 2022, published 2026)
